Like-named read-outs stand apart in the source and are kept apart here.
Columns and labels:
[1] = test system: MKN-45/Ubc-luc cells; assay: Proliferation assay (resazurin), MKN-45; type: cell-based; details: 72 hours incubation
[2] = test system: NCI-H2052 Tet-On shYAP_2371 pLenti6 MCAT_Luc cells (YAP-dependent transcription); assay: YAP reporter gene activity assay (MCAT-luciferase), NCI-H2052; type: cell-based; details: 24 hours incubation, BrightGlo luminescence
How it was run: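 Luminescence was read 5 min after BrightGlo, following 24 h at 37 °C of compound exposure (eleven 2-fold dilutions, DMSO normalized to 0.1%). Cells were NCI-H2052 with a YAP-responsive MCAT-luciferase and a Tet-inducible shRNA against YAP1 3′UTR. Cell-free background was removed, values were normalized to vehicle, and IC50 was fitted with four parameters.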

[3] = test system: NCI-H2052 Tet-On shYAP_2371 pLenti6 MCAT_Luc cells; assay: Proliferation assay (resazurin), NCI-H2052; type: cell-based; details: 72 hours incubation
How it was run: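 The NCI-H2052 line carries a Tet-inducible shRNA against the YAP1 3′UTR and an MCAT luciferase reporter. The day after seeding, it received eleven 2-fold compound dilutions at 0.1% DMSO, and viability was read by resazurin fluorescence.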

[4] = test system: MKN-45/Ubc-luc cells; assay: Reporter gene specificity control (Ubc-luciferase), MKN-45
Description: As a specificity control, MKN-45 cells were stably transduced with a Ubc-Luc reporter construct, in which constitutive expression of firefly luciferase is driven by the promoter of the ubiquitin C housekeeping gene.
Stock solutions of compounds were prepared at a concentration of 10 mM in DMSO and stored at 4° C. Where necessary to afford a full dose-response curve, the stock solutions were pre-diluted in DMSO to 1'000-fold the desired reduced start concentration. On the day after cell seeding, eleven 2-fold serial dilutions of each compound were dispensed directly into the cell assay plates using a HP 300D non-contact Digital Dispenser (TECAN, Mannedorf, Switzerland). The final concentration of DMSO was normalized to 0.1% in all wells.
The ability of compounds to inhibit YAP-dependent transcription was assessed in NCI-H2052 Tet-On shYAP_2371 pLenti6 MCAT_Luc cells, while specificity (lack of unspecific inhibition of luciferase expression of activity) was assessed in MKN-45/Ubc-luc cells. […] Following incubation for 24 hours at 37° C., compound-mediated modulation of reporter-gene activity was quantified 5 min after addition of 20 μl BrightGlo (Promega, Cat #E2620), by measuring luminescence intensity on a multi-mode plate-reader (TECAN, Männedorf, Switzerland, Integration time 100 ms). For data analysis, the assay background value determined in wells containing medium, but no cells, was subtracted from all data points. Dose-dependent compound effects were expressed as % of vehicle-treated control (luminescence signal produced by cells receiving DMSO only) and IC50s calculated using a four-parametric fit model.

[5] = biological target: Avi-humanTEAD4 217-434 / Cy5 labeled humanYAP 60-100 (Homo sapiens (Human), UniProt Q15561); assay: TR-FRET YAP-TEAD4 in-vitro biochemical assay; type: binding; details: 1 nM Avi-humanTEAD4 217-434, 20 nM Cy5-humanYAP 60-100, 1 h room temperature
[6] = Homo sapiens, MKN-45, 24 h, read-out: Reporter gene assay MKN-45 IC50 [μM], MKN-45/Ubc-luc cells (YAP deleted, specificity control), 24 hours incubation
[7] = read-out: Reporter gene assay MKN-45 IC50, MKN-45/Ubc-luc cells (YAP deleted, specificity control), 24 hours incubation

Sequence of Avi-humanTEAD4 217-434 / Cy5 labeled humanYAP 60-100 (Q15561 217-434): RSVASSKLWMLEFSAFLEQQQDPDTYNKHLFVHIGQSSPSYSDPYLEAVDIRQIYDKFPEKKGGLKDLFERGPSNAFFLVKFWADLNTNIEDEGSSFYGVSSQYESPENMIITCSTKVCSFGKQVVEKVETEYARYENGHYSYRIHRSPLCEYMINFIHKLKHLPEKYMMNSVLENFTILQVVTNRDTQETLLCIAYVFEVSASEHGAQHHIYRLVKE

Row | SMILES | GI50 ([1]; Homo sapiens) [nM] | IC50 ([2]; Homo sapiens, NCI-H2052, 24 h) [nM] | GI50 ([3]; Homo sapiens, NCI-H2052, 72 h) [nM] | IC50 [4, 6] [µM] | IC50 [5] [nM] | GI50 [1] [nM] | IC50 [2] [nM] | GI50 [3] [nM] | IC50 [4, 7] [µM]
1 | C[C@H](O)COc1ccc(C#N)c(-c2c(Cl)c(F)cc3c2[C@H](C)[C@@](CN[C@H]2CC[C@](C)(O)CC2)(c2ccccc2)O3)c1F (atropisomer, axis not shown) [Example 120, 2-((2S,3S,4S)-5-Chloro-6-fluoro-2-((((trans)-4-hydroxy-4-methylcyclohexyl)amino)methyl)-3-methyl-2-phenyl-2,3-dihydrobenzofuran-4-yl)-3-fluoro-4-((S)-2-hydroxypropoxy)benzonitrile] | > 10000 | 20 | 22 | > 10 | 3 |  |  |  | 
2 | CNC[C@@]1(c2ccccc2)Cc2c(cc(F)c(Cl)c2-c2c(C(=O)NC)ccc(OCCO)c2F)O1 (atropisomer, axis not shown) [Example 51, 2-((2S,4S)-5-Chloro-6-fluoro-2-((methylamino)methyl)-2-phenyl-2,3-dihydrobenzofuran-4-yl)-3-fluoro-4-(2-hydroxyethoxy)-N-methylbenzamide] | > 10000 | 62 | 71 | > 10 | 3 |  |  |  | 
3 | COc1ccc(C(N)=O)c(-c2c(Cl)ccc3c2C[C@@](CN)(c2cscn2)O3)c1F (atropisomer, axis not shown) [Example 29, 2-((2R,4S)-2-(Aminomethyl)-5-chloro-2-(thiazol-4-yl)-2,3-dihydrobenzofuran-4-yl)-3-fluoro-4-methoxybenzamide] | > 10000 | 2000 | 1850 | > 10 | 10 |  |  |  | 
4 | COc1ccc(C(N)=O)c(-c2c(Cl)ccc3c2C[C@@](CN)(c2ccccc2)O3)c1F (single isomer, unassigned) [Example 5a] |  |  |  |  | 5 | > 10000 | 130 | 280 | > 20
5 | C[C@H]1c2c(cc(F)c(Cl)c2-c2c(C(N)=O)ccc(OCC(C)(C)O)c2F)O[C@]1(CN[C@H]1CC[C@](C)(O)CC1)c1ccccc1 (atropisomer, axis not shown) [Example 148, 2-((2S,3S,4S)-5-Chloro-6-fluoro-2-((((trans)-4-hydroxy-4-methylcyclohexyl)amino)methyl)-3-methyl-2-phenyl-2,3-dihydrobenzofuran-4-yl)-3-fluoro-4-(2-hydroxy-2-methylpropoxy)benzamide] | > 20000 | 54 | 53 | > 20 | 4 |  |  |  | 
6 | CC(C)(O)C1CC(NC[C@@]2(c3ccccc3)Cc3c(cc(F)c(Cl)c3-c3c(C(N)=O)ccc(OC(F)F)c3F)O2)C1 (single isomer, unassigned) [Example 62b] |  |  |  |  | 6 | > 10000 | 54 | 89 | > 10
7 | C[C@H](O)COc1ccc(C(N)=O)c(-c2c(Cl)c(F)cc3c2[C@H](C)[C@@](CN[C@H]2CC[C@@](C)(O)CC2)(c2ccccc2)O3)c1F (atropisomer, axis not shown) [Example 114b, 2-((2S,3S,4S)-5-chloro-6-fluoro-2-((((cis)-4-hydroxy-4-methylcyclohexyl)amino)methyl)-3-methyl-2-phenyl-2,3-dihydrobenzofuran-4-yl)-3-fluoro-4-((S)-2-hydroxypropoxy)benzamide] | > 10000 | 23 | 34 | > 10 | 2 |  |  |  | 
8 | NC(=O)c1ccc(OC(F)F)c(F)c1-c1c(Cl)c(F)cc2c1C[C@@](CN[C@H]1CC[C@H](O)CC1)(c1ccccc1)O2 (atropisomer, axis not shown) [Example 72, 2-((2S,4S)-5-chloro-6-fluoro-2-(((trans-4-hydroxycyclohexyl)amino)methyl)-2-phenyl-2,3-dihydrobenzofuran-4-yl)-4-(difluoromethoxy)-3-fluorobenzamide] | > 10000 | 39 | 72 | 9.8 | 2 |  |  |  | 
9 | COc1ccc(C(N)=O)c(-c2c(Cl)ccc3c2[C@H](O)[C@@](CN)(c2cccnc2OC)O3)c1F (atropisomer, axis not shown) [Example 91, 2-((2S,3S,4S)-2-(Aminomethyl)-5-chloro-3-hydroxy-2-(2-methoxypyridin-3-yl)-2,3-dihydrobenzofuran-4-yl)-3-fluoro-4-methoxybenzamide] | > 10000 | 960 | 1930 | > 10 | 22 |  |  |  | 
10 | CNC[C@@]1(c2ccccc2)Cc2c(cc(F)c(Cl)c2-c2c(C(N)=O)cnc(OCCOC)c2F)O1 (atropisomer, axis not shown) [Example 47, 4-((2S,4S)-5-Chloro-6-fluoro-2-((methylamino)methyl)-2-phenyl-2,3-dihydrobenzofuran-4-yl)-5-fluoro-6-(2-methoxyethoxy)nicotinamide] | > 10000 | 50 | 35 | > 10 | 4 |  |  |  | 
11 | CNC[C@]1(c2ccccc2)Oc2cc(F)c(Cl)c(-c3c(C(=O)NC)cnc(OCCO)c3F)c2[C@@H]1C (atropisomer, axis not shown) [Example 145, 4-((2S,3S,4S)-5-Chloro-6-fluoro-3-methyl-2-((methylamino)methyl)-2-phenyl-2,3-dihydrobenzofuran-4-yl)-5-fluoro-6-(2-hydroxyethoxy)-N-methylnicotinamide] | > 20000 | 46 | 58 | > 20 | 5 |  |  |  | 
12 | CNC[C@]1(c2ccccc2)Oc2cc(F)c(Cl)c(-c3c(C(=O)NC)ccc(OC[C@H](C)O)c3F)c2[C@@H]1C (atropisomer, axis not shown) [Example 122, 2-((2S,3S,4S)-5-Chloro-6-fluoro-3-methyl-2-((methylamino)methyl)-2-phenyl-2,3-dihydrobenzofuran-4-yl)-3-fluoro-4-((S)-2-hydroxypropoxy)-N-methylbenzamide] | > 10000 | 85 | 59 | > 10 | 6 |  |  |  | 
13 | C[C@H](O)COc1ccc(C(N)=O)c(-c2c(Cl)c(F)cc3c2[C@H](C)[C@@](CN)(c2ccccc2)O3)c1F (atropisomer, axis not shown) [Example 123, 2-((2S,3S,4S)-2-(Aminomethyl)-5-chloro-6-fluoro-3-methyl-2-phenyl-2,3-dihydrobenzofuran-4-yl)-3-fluoro-4-((S)-2-hydroxypropoxy)benzamide] | > 10000 | 25 | 44 | > 10 | 2 |  |  |  | 
14 | C[C@H](O)COc1ccc(C(N)=O)c(-c2c(Cl)c(F)cc3c2C[C@](c2ccccc2)(C2CC(C)(O)CN2)O3)c1F (stereo partly drawn) [Example 159, 2-((2S,4S)-5-Chloro-6-fluoro-2-(4-hydroxy-4-methylpyrrolidin-2-yl)-2-phenyl-2,3-dihydrobenzofuran-4-yl)-3-fluoro-4-((S)-2-hydroxypropoxy)benzamide] | > 15000 | 1060 | 856 | > 15 | 122 |  |  |  | 
15 | COCCOc1ccc(C(N)=O)c(-c2c(Cl)c(F)cc3c2[C@H](C)[C@@](CN[C@H]2CC[C@](C)(O)CC2)(c2ccccn2)O3)c1F (atropisomer, axis not shown) [Example 126, 2-((2R,3S,4S)-5-Chloro-6-fluoro-2-((((trans)-4-hydroxy-4-methylcyclohexyl)amino)methyl)-3-methyl-2-(pyridin-2-yl)-2,3-dihydrobenzofuran-4-yl)-3-fluoro-4-(2-methoxyethoxy)benzamide] | > 10000 | 45 | 76 | > 10 | 2 |  |  |  | 
16 | COc1ccc(C(N)=O)c(-c2c(Cl)c(F)cc3c2[C@H](C)[C@@](CN[C@H]2CC[C@](C)(O)CC2)(c2cccnc2)O3)c1F (atropisomer, axis not shown) [Example 127, 2-((2S,3S,4S)-5-Chloro-6-fluoro-2-((((trans)-4-hydroxy-4-methylcyclohexyl)amino)methyl)-3-methyl-2-(pyridin-3-yl)-2,3-dihydrobenzofuran-4-yl)-3-fluoro-4-methoxybenzamide] | > 10000 | 65 | 141 | > 10 | 6 |  |  |  | 
17 | CNC(=O)c1ccc(OC[C@H](C)O)c(F)c1-c1c(Cl)c(F)cc2c1C[C@](c1ccccc1)([C@@H]1CCCN1)O2 (atropisomer, axis not shown) [Example 154, 2-((2S,4S)-5-Chloro-6-fluoro-2-phenyl-2-((S)-pyrrolidin-2-yl)-2,3-dihydrobenzofuran-4-yl)-3-fluoro-4-((S)-2-hydroxypropoxy)-N-methylbenzamide] | > 10000 | 77 | 59 | > 10 | 8 |  |  |  | 

— US12083101B2, “Biaryl derivatives as YAP/TAZ-TEAD protein-protein interaction inhibitors” (Novartis AG, priority 2020, dated 2024)
